In patent US20120322890A1, “Inhibition of the Survival of Bone Cancer by Cyclohexenone Compounds from Antrodia Camphorata” (Golden Biotechnology Corporation, priority 2009, published 2012) one finds IC50 data, which are given here for one compound.

This assay has as its system bone cancer cell line MG-63. Put plainly: In vitro survival assay (MTT) for inhibition of bone cancer cells. Type of assay: cell-based. The settings on record: Homo sapiens, MG-63 cells, 48 hours treatment, absorbance at 570 nm, read-out: IC50 (half inhibition concentration), survival of bone cancer cells. How it is done:
Inhibiting effects of bone cancer cells by cyclohexenone compounds of Antrodia camphorata from example 1 were assessed according to the anticancer-drug screening model of National Cancer Institute (NCI). The compound 4-hydroxy-2,3-dimethoxy-6-methyl-5-(3,7,11-trimethyl-dodeca-2,6,10-trienyl)-cyclohex-2-enone from example 1 was added into the culture media of bone cancer cell line MG-63 to determine the survival rates. Survival of cell was analyzed using MTT assay. MG-63 cell line was an osteoblast-like fibroblast cell line and derived from human osteosarcoma, which had similar cell type and feature with osteoblast.
MTT assay is commonly used to analyze cell proliferation, survival rate of viable cells and cytotoxicity. MTT (3[4,5-dimethylthiazol-2-yl]-2,5-diphenyltetrazolium bromide) is a yellow dye which can be converted to water-insoluble purple formazan on the reductive cleavage of its tetrazolium ring by the succinate tetrazolium reductase in mitochondria of cells. The amount of formazan produced is used to detect the number of viable cells and calculate the survival rates.
The MG-63 cells were cultivated in Dulbecco's modified Eagle's medium (DMEM) supplemented with 10% fetal bovine serum, 100 IU/ml of Penicillin and […] of Streptomycin at 37° C., 5% CO2 for 24 hours. […] The absorbances were measured at 570 nm with an ELISA Reader to determine the survival rates.

Consider `COC1=C(OC)C(O)C(C/C=C(\C)CC/C=C(\C)CCC=C(C)C)C(C)C1=O` (stereo not shown) [formula 2, 4-hydroxy-2,3-dimethoxy-6-methyl-5-(3,7,11-trimethyl-dodeca-2,6,10-trienyl)-cyclohex-2-enone], for which the IC50 is 2.09 µg/mL.
